# From paper PMC12720774, “Detergents alter the stability and lipid binding properties of the CD1d immunoreceptor” (Protein Science : A Publication of the Protein Society, 2025)
# Several values for one entry are separate records, joined by “and”; a condition that tells them apart may be missing. Identical values can stand only once. Like-named read-outs stand apart in the source and are kept apart here.
# Experiments:
# AF647‐labeled hCD1d [1] = biological target: T1, AF647‐labeled hCD1d (Homo sapiens, UniProt P15813); assay: Microscale thermophoresis (MST) binding assay
# T1 construct: TEV protease cleavage site ENLYFQS (C); BirA biotinylation site (C); His7 (C); made in house; host or cells: TurboCHO cells (GenScript)
# Excerpt: (§1) The experimental limitations of ITF, such as low instrument sensitivity, high sample consumption, signal overlap with some ligands, and low throughput (Fossum et al., [2023]), made it necessary to employ alternative, complementary assays to quantify detergent binding to hCD1d. […] MST measures the diffusion of fluorescent molecules in response to microscopic temperature gradients (Seidel et al., [2013]). When a protein forms a complex with a ligand, changes in hydrodynamic properties, charge, or solvation energy alter its thermophoretic behavior, allowing detection of binding events. To perform MST experiments, Alexa Fluor 647 (AF647) dye was covalently attached to the primary amines of hCD1d via standard N‐hydroxysuccinimide coupling chemistry (Anderson et al., [1964]). The concentration of AF647‐hCD1d was kept constant, and the change in MST signal was measured as a function of increasing detergent concentration (Figure S3). Like ITF, any lipid or detergent that destabilizes CD1 can also alter the MST signal since unfolding changes the protein's Stokes radius and its thermophoretic behavior. […] This is why we compare MST results with ITF and nanoDSF, as described below.
# (§2) For MST, hCD1d was fluorescently labeled with AF647‐NHS Ester (Invitrogen #A20006). Briefly, a 10 mM stock of AF647‐NHS was prepared in anhydrous DMSO. Then, 100 μL of 50 μM hCD1d in 1X PBS pH 7.4 was mixed with 1 μL of 10 mM AF647‐NHS (1:2 molar ratio of protein: dye). The mixture was allowed to react for 1 h in the dark at 25°C. Unreacted dye was removed from the protein–dye conjugate by performing size exclusion chromatography in the dark with a Superdex 200 Increase 10/300 GL column at a flow rate of 0.5 mL/min in SEC buffer (100 mM NaCl, 20 mM sodium phosphate, pH 7.2). The degree of labeling was determined by a NanoDrop spectrophotometer at A647 nm (dye absorbance) and A280 nm (hCD1d absorbance). The degree of labeling was determined from the ratio of dye concentration to protein concentration. The degree of labeling was ~75%.
# (§3) MST experiments were performed using a Monolith NT.115 instrument (NanoTemper Technologies) using Monolith standard capillaries and the red excitation laser setup. The following settings were applied for all MST experiments: excitation power: 30%–50%, MST power: medium, before MST time: 3 s, MST on time (IR laser): 20 seconds, and after MST time: 1 s. MST measurements were analyzed using the Monolith Affinity Analysis software v2.3 and exported for plotting in GraphPad Prism v10.1. Three replicates were performed, and data are presented as the mean ± standard deviation (n = 3).
# (§4) MST measurements of 100 nM AF647‐hCD1d were acquired in the absence and presence of detergents in 1X PBS pH 7.4 at 25°C. Prior to data acquisition, hCD1d and detergent or lipid samples were incubated at 37°C overnight (~12 h) to simulate in vitro and in vivo loading conditions. […] For 18:1 LPC experiments: MST data of 100 nM AF647‐hCD1d were acquired in the absence and presence of 18:1 LPC in 1X PBS pH 7.4 at 25°C.
# AF647‐labeled hCD1d [2] = biological target: T2, AF647‐labeled hCD1d (Homo sapiens, UniProt P15813+P61769); assay: Microscale thermophoresis (MST) binding assay
# T2 construct: TEV protease cleavage site ENLYFQS (C); BirA biotinylation site (C); His7 (C); made in house; host or cells: TurboCHO cells (GenScript)
# Excerpt: as §1, §2, §3, §4
# hCD1d = hCD1d (Homo sapiens, UniProt P15813+P61769); assay: Nano differential scanning fluorimetry (nanoDSF) thermal stability; assay type: binding; design: TEV protease cleavage site ENLYFQS (C); BirA biotinylation site (C); His7 (C); made in house; host or cells: TurboCHO cells (GenScript); details: for ΔTm aveage: Figure 5C, nanoDSF, hCD1d with detergent; for ΔT m (NanoDSF): T m difference between hCD1d in the absence and presence of 1000 μM detergent, 1 μM hCD1d; for ΔT m, detergent class summary: approximate
# Excerpt: We next sought to probe the ability of each detergent to influence the thermal stability of hCD1d. NanoDSF has been previously applied to measure lipid/detergent‐induced thermal stability changes in target proteins (Cecchetti et al., [2021]; Kotov et al., [2019]), but has not yet been applied to ligand binding to CD1. NanoDSF measures the ITF ratio (F 350 nm/F 330 nm) of proteins as a function of temperature to extract thermodynamic parameters. Given that ligand binding typically shifts the melting temperature of proteins, the effect of a ligand on protein stability can be approximated with the ΔT m value (the difference in T m with and without excess ligand) (Cecchetti et al., [2021]; Kotov et al., [2019]). We found all detergents tested to destabilize hCD1d, albeit to different degrees, with ΔT m values ranging from −0.8 to −14.2°C (Figures 4, S4, and Table 1).
# Nano differential scanning fluorometry (nanoDSF) was performed using a Prometheus NT.48 (NanoTemper Technologies). Purified hCD1d at 1 μM in 1X PBS pH 7.4 was loaded into nanoDSF grade standard capillaries (NanoTemper Technologies) and exposed to temperatures ranging from 20 to 95°C with a thermal ramping rate of 1°C/min. Excitation power was set to 50%. The ratio of intrinsic fluorescence emission (F 350 nm/F 330 nm) was monitored. Melting temperatures (T m) were obtained from fitting the first derivative plots in the Prometheus NT.48 Software. The experiments were performed in triplicate, and data are presented as the mean ± standard deviation (n = 3).
# For experiments with most detergents, prior to data acquisition, hCD1d and detergent or lipid samples were incubated at 37°C overnight (~12 h) to simulate in vitro and in vivo loading conditions. […] For 18:1 LPC experiments: nanoDSF spectra were acquired in the absence and presence of 18:1 LPC in 1X PBS pH 7.4 at 25°C.
# [3] = approximate, ref Anatrace catalogue, cited from earlier work
# [4] = Figure 5B, detergent binding to hCD1d, read-out: MST - Kd (uM) average
# [5] = detergent with 100 nM AF647‐labeled hCD1d, 25°C, apparent, read-out: K D (MST)
# [6] = 0.001 M detergent, 100 nM AF647‐hCD1d
# T2 sequence (P61769+P15813 fused): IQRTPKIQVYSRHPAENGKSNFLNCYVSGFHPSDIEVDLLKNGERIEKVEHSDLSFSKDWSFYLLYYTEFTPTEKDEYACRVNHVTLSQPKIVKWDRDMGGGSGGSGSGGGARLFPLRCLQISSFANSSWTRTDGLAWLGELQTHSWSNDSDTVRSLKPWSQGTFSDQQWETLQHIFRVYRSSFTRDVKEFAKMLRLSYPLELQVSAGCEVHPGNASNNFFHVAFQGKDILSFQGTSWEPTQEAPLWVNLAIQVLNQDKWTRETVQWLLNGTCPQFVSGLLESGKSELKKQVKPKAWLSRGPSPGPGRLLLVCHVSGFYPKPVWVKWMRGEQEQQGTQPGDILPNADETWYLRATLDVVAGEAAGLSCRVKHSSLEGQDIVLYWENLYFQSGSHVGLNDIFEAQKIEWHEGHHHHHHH
# hCD1d, sequence (P61769+P15813 fused): as above
# T1 sequence (P15813 whole entry, looked up): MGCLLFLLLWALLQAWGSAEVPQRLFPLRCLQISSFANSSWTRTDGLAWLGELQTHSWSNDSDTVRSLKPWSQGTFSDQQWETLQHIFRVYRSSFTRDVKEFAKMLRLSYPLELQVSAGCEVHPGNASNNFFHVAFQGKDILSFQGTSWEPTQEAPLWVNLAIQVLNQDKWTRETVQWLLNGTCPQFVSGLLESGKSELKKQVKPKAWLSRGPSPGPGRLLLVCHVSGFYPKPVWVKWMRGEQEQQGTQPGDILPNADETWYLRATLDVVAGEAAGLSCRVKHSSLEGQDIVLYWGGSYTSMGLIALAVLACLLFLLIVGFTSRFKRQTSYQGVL
Compound,Fnorm (rep 1-3) (AF647‐labeled hCD1d [2]; 3.05176e-8 M detergent),Fnorm (rep 1-3) (AF647‐labeled hCD1d [2]; 6.10352e-8 M detergent),Fnorm (rep 1-3) (AF647‐labeled hCD1d [2]; 1.2207e-7 M detergent),Fnorm (rep 1-3) (AF647‐labeled hCD1d [2]; 2.44141e-7 M detergent),Fnorm (rep 1-3) (AF647‐labeled hCD1d [2]; 4.88281e-7 M detergent),Fnorm (rep 1-3) (AF647‐labeled hCD1d [2]; 9.76563e-7 M detergent),Fnorm (rep 1-3) (AF647‐labeled hCD1d [2]; 1.95313e-6 M detergent),Fnorm (rep 1-3) (AF647‐labeled hCD1d [2]; 3.90625e-6 M detergent),Fnorm (rep 1-3) (AF647‐labeled hCD1d [2]; 7.8125e-6 M detergent),Fnorm (rep 1-3) (AF647‐labeled hCD1d [2]; 1.5625e-5 M detergent),Fnorm (rep 1-3) (AF647‐labeled hCD1d [2]; 3.125e-5 M detergent),Fnorm (rep 1-3) (AF647‐labeled hCD1d [2]; 6.25e-5 M detergent),Fnorm (rep 1-3) (AF647‐labeled hCD1d [2]; 0.000125 M detergent),Fnorm (rep 1-3) (AF647‐labeled hCD1d [2]; 0.00025 M detergent),Fnorm (rep 1-3) (AF647‐labeled hCD1d [2]; 0.0005 M detergent),Fnorm (rep 1-3) (AF647‐labeled hCD1d [2]; [6]),ΔTm aveage (hCD1d) [°C],ΔT m (NanoDSF) (hCD1d) [°C],Kd (AF647‐labeled hCD1d [2]; [4]) [µM],Kd (AF647‐labeled hCD1d [2]; [5]) [µM],also measured
"C[C@H](CCC(=O)O)[C@H]1CC[C@H]2[C@@H]3CC[C@@H]4C[C@H](O)CC[C@]4(C)[C@H]3C[C@H](O)[C@]12C [Deoxycholate, sodium deoxycholate]",795.701 ‰ and 796.724 ‰ and 797.98 ‰,794.625 ‰ and 796.029 ‰ and 797.315 ‰,793.156 ‰ and 796.701 ‰ and 795.845 ‰,795.335 ‰ and 795.616 ‰ and 795.028 ‰,795.887 ‰ and 794.029 ‰ and 796.702 ‰,796.103 ‰ and 795.392 ‰ and 796.86 ‰,795.057 ‰ and 792.832 ‰ and 795.608 ‰,796.418 ‰ and 796.702 ‰ and 795.904 ‰,795.548 ‰ and 798.002 ‰ and 797.636 ‰,795.128 ‰ and 798.849 ‰ and 799.048 ‰,798.119 ‰ and 798.444 ‰ and 799.423 ‰,800.962 ‰ and 799.886 ‰ and 803.305 ‰,801.785 ‰ and 804.744 ‰ and 805.19 ‰,804.206 ‰ and 807.083 ‰ and 805.968 ‰,808.515 ‰ and 808.171 ‰ and 806.841 ‰,814.33 ‰ and 809.551 ‰ and 810.963 ‰,-10,−10.0 ± 0.3,–,–,Kd (AF647‐labeled hCD1d [1]; [4]): 103 µM; Kd (AF647‐labeled hCD1d [1]; [5]): > 10000 µM; binding to hCD1d by MST (in words) (AF647‐labeled hCD1d [2]): observable binding; ΔT m (NanoDSF) (hCD1d; listed as Sodium deoxycholate): −10.0 ± 0.3 °C; detergent concentration at which hCD1d appeared to unfold (hCD1d; disappearance of inflection point in ∂(F350/F330)/∂T): > 200 µM
Tween 20,810.612 ‰ and 815.192 ‰ and 809.256 ‰,813.29 ‰ and 812.34 ‰ and 811.415 ‰,817.136 ‰ and 816.199 ‰ and 816.479 ‰,815.645 ‰ and 816.365 ‰ and 812.483 ‰,818.589 ‰ and 818.547 ‰ and 817.485 ‰,822.035 ‰ and 829.676 ‰ and 823.26 ‰,824.959 ‰ and 826.615 ‰ and 828.828 ‰,831.241 ‰ and 838.502 ‰ and 830.859 ‰,839.917 ‰ and 838.414 ‰ and 840.568 ‰,845.364 ‰ and 842.629 ‰ and 839.392 ‰,839.617 ‰ and 847.737 ‰ and 840.958 ‰,842.166 ‰ and 843.948 ‰ and 838.707 ‰,841.26 ‰ and 840.691 ‰ and 839.447 ‰,843.661 ‰ and 845.01 ‰ and 840.579 ‰,843.68 ‰ and 846.334 ‰ and 839.195 ‰,842.084 ‰ and 846.496 ‰ and 844.53 ‰,-8.33,-8.3 ± 0.2,1.79,1.8 ± 0.5,"CMC [3]: 59 µM; CMC ([3]; weight/volume): 0.0072%; ΔT m (nanoDSF), lipid/hCD1d (hCD1d; absence vs maximum concentration of detergent, 1 μM endo/hCD1d (Figure S10)): ≈ −8.3 °C; ΔT m, detergent class summary (hCD1d): −8 to −10 °C"
Tween 80,–,–,–,–,–,–,–,–,–,–,–,–,–,–,–,–,-9.7,-9.7 ± 0.4,3.24,3.2 ± 0.1,"Fnorm (rep 1-3) (AF647‐labeled hCD1d [2]; 6.10352e-9 M detergent): 805.067 ‰ and 809.857 ‰ and 804.507 ‰; Fnorm (rep 1-3) (AF647‐labeled hCD1d [2]; 1.2207e-8 M detergent): 806.458 ‰ and 809.351 ‰ and 805.026 ‰; Fnorm (rep 1-3) (AF647‐labeled hCD1d [2]; 2.44141e-8 M detergent): 805.306 ‰ and 809.655 ‰ and 805.09 ‰; Fnorm (rep 1-3) (AF647‐labeled hCD1d [2]; 4.88281e-8 M detergent): 807.116 ‰ and 806.609 ‰ and 806.1 ‰; Fnorm (rep 1-3) (AF647‐labeled hCD1d [2]; 9.76563e-8 M detergent): 804.905 ‰ and 807.619 ‰ and 802.759 ‰; Fnorm (rep 1-3) (AF647‐labeled hCD1d [2]; 1.95313e-7 M detergent): 804.684 ‰ and 807.405 ‰ and 803.094 ‰; Fnorm (rep 1-3) (AF647‐labeled hCD1d [2]; 3.90625e-7 M detergent): 805.673 ‰ and 808.266 ‰ and 805.393 ‰; Fnorm (rep 1-3) (AF647‐labeled hCD1d [2]; 7.8125e-7 M detergent): 808.872 ‰ and 807.822 ‰ and 807.967 ‰; Fnorm (rep 1-3) (AF647‐labeled hCD1d [2]; 1.5625e-6 M detergent): 807.024 ‰ and 810.305 ‰ and 805.453 ‰; Fnorm (rep 1-3) (AF647‐labeled hCD1d [2]; 3.125e-6 M detergent): 820.597 ‰ and 825.116 ‰ and 819.282 ‰; Fnorm (rep 1-3) (AF647‐labeled hCD1d [2]; 6.25e-6 M detergent): 847.228 ‰ and 846.294 ‰ and 841.909 ‰; Fnorm (rep 1-3) (AF647‐labeled hCD1d [2]; 1.25e-5 M detergent): 846.069 ‰ and 855.71 ‰ and 840.031 ‰; Fnorm (rep 1-3) (AF647‐labeled hCD1d [2]; 2.5e-5 M detergent): 844.894 ‰ and 848.667 ‰ and 837.578 ‰; Fnorm (rep 1-3) (AF647‐labeled hCD1d [2]; 5e-5 M detergent): 846.685 ‰ and 845.769 ‰ and 838.247 ‰; Fnorm (rep 1-3) (AF647‐labeled hCD1d [2]; 0.0001 M detergent): 846.112 ‰ and 846.019 ‰ and 837.99 ‰; Fnorm (rep 1-3) (AF647‐labeled hCD1d [2]; 0.0002 M detergent): 847.908 ‰ and 844.822 ‰ and 840.824 ‰; CMC [3]: 12 µM; CMC ([3]; weight/volume): 0.0016%; ΔT m, detergent class summary (hCD1d): −8 to −10 °C"
